{"source": "patent US20130331314A1", "about": "“PHARMACEUTICAL COMPOSITION FOR TREATING HCV INFECTIONS” (Hoffmann-La Roche Inc., priority 2010, published 2013)", "assay": "Biopharmaceutical Classification System class", "type": "physicochemical", "conditions": "solubility and permeability limited oral absorption"}
{"smiles": "CC(C)(C)OC(=O)N[C@H]1CCCCC/C=C\\[C@@H]2C[C@@]2(C(=O)NS(=O)(=O)C2CC2)NC(=O)[C@@H]2C[C@@H](OC(=O)N3Cc4cccc(F)c4C3)CN2C1=O", "note": "[Compound I, 4-fluoro-1,3-dihydro-isoindole-2-carboxylic acid (Z)-(1S,4R,6S,14S, 18R)-14-tert-butoxycarbonylamino-4-cyclopropanesulfonylaminocarbonyl-2,15-dioxo-3,16-diaza-tricyclo[14.3.0.0^4,6]nonadec-7-en-18-yl ester]", "values": [{"measurement": "Biopharmaceutical Classification System class", "result": "Class 4"}]}
